Reference: patent US11634447B2 (priority 2012, dated 2023)

test system: bacterial strain LF82 binding to the glycoprotein BSA-(Mannose)3; assay: Bacterial Binding Assay (BBA); assay type: cell-based, Escherichia coli; settings: read-out: Bacterial Binding Assay IC50, LF82/Luciferase strain binding to BSA-(Man)3 coated plates, luminescence
In short: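 Inhibition of LF82/luciferase E. coli adhesion is read as luminescence after washing off unbound cells. Compound and bacteria (10^7 per well) are co-incubated 40-75 min at room temperature on wells coated with 0.5-2 μg/mL BSA-(Man)3, with BSA-only wells as background; IC50 values derived.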

Row | SMILES | IC50 [nM]
1 | OCCc1cc(C#C[C@H]2O[C@H](CO)[C@@H](O)[C@H](O)[C@@H]2O)ccc1C#C[C@H]1O[C@H](CO)[C@@H](O)[C@H](O)[C@@H]1O [Compound 94, (2R,3S,4R,5S,6R)-2-[2-[3-(2-hydroxyethyl)-4-[2-[(2R,3S,4R,5S,6R)-3,4,5-trihydroxy-6-(hydroxymethyl)tetrahydropyran-2-yl]ethynyl]phenyl]ethynyl]-6-(hydroxymethyl)tetrahydropyran-3,4,5-triol] | 20
2 | Cc1cc(C#Cc2ccc([C@H]3O[C@H](CO)[C@@H](O)[C@H](O)[C@@H]3O)c(C)c2)ccc1[C@H]1O[C@H](CO)[C@@H](O)[C@H](O)[C@@H]1O [Compound 152, (2R,3S,4R,5S,6R)-2-(hydroxymethyl)-6-[2-methyl-4-[2-[3-methyl-4-[(2R,3S,4R,5S,6R)-3,4,5-trihydroxy-6-(hydroxymethyl)tetrahydropyran-2-yl]phenyl]ethynyl]phenyl]tetrahydropyran-3,4,5-triol] | 31
3 | OCc1cc(C#C[C@H]2O[C@H](CO)[C@@H](O)[C@H](O)[C@@H]2O)c(CO)cc1C#C[C@H]1O[C@H](CO)[C@@H](O)[C@H](O)[C@@H]1O [Compound 85, (2R,3S,4R,5S,6R)-2-[2-[2,5-bis(hydroxymethyl)-4-[2-[(2R,3S,4R,5S,6R)-3,4,5-trihydroxy-6-(hydroxymethyl)tetrahydropyran-2-yl]ethynyl]phenyl]ethynyl]-6-(hydroxymethyl)tetrahydropyran-3,4,5-triol] | 160
4 | O=C(CCn1cccn1)c1c(C#C[C@H]2O[C@H](CO)[C@@H](O)[C@H](O)[C@@H]2O)ccc2c1C1(CCNCC1)c1cc(C#C[C@H]3O[C@H](CO)[C@@H](O)[C@H](O)[C@@H]3O)ccc1-2 [Compound 240, 1-[2,7-bis[2-[(2R,3S,4R,5S,6R)-3,4,5-trihydroxy-6-(hydroxymethyl)tetrahydropyran-2-yl]ethynyl]spiro[fluorene-9,4piperidine]-1yl]-3-pyrazol-1-yl-propan-1-one] | 0.05
5 | OC[C@H]1O[C@H](C#Cc2ccc(C#C[C@H]3O[C@H](CO)[C@@H](O)[C@H](O)[C@@H]3O)c(OC(F)F)c2)[C@@H](O)[C@@H](O)[C@@H]1O [Compound 92, (2R,3S,4R,5S,6R)-2-[2-[3-(difluoromethoxy)-4-[2-[(2R,3S,4R,5S,6R)-3,4,5-trihydroxy-6-(hydroxymethyl)tetrahydropyran-2-yl]ethynyl]phenyl]ethynyl]-6-(hydroxymethyl)tetrahydropyran-3,4,5-triol] | 36
6 | OC[C@H]1O[C@H](C#Cc2ccc3nc(C#C[C@H]4O[C@H](CO)[C@@H](O)[C@H](O)[C@@H]4O)ccc3c2)[C@@H](O)[C@@H](O)[C@@H]1O [Compound 126, (2R,3S,4R,5S,6R)-2-(hydroxymethyl)-6-[2-[2-[2-[(2R,3S,4R,5S,6R)-3,4,5-trihydroxy-6-(hydroxymethyl)tetrahydropyran-2-yl]ethynyl]-6-quinolyl]ethynyl]tetrahydropyran-3,4,5-triol] | 124
7 | CN1CCN(CCNC(=O)Cn2c3cc(C#C[C@H]4O[C@H](CO)[C@@H](O)[C@H](O)[C@@H]4O)ccc3c3ccc(C#C[C@H]4O[C@H](CO)[C@@H](O)[C@H](O)[C@@H]4O)cc32)CC1 [Compound 177, 2-[2,7-bis[2-[(2R,3S,4R,5S,6R)-3,4,5-trihydroxy-6-(hydroxymethyl)tetrahydropyran-2-yl]ethynyl]carbazol-9-yl]-N-[2-(4-methylpiperazin-1-yl)ethyl]acetamide] | 0.66
8 | OC[C@H]1O[C@H](C#Cc2ccc(C#C[C@H]3O[C@H](CO)[C@@H](O)[C@H](O)[C@@H]3O)c3[nH]ncc23)[C@@H](O)[C@@H](O)[C@@H]1O [Compound 171, (2R,3S,4R,5S,6R)-2-(hydroxymethyl)-6-[2-[7-[2-[(2R,3S,4R,5S,6R)-3,4,5-trihydroxy-6-(hydroxymethyl)tetrahydropyran-2-yl]ethynyl]-1H-indazol-4-yl]ethynyl]tetrahydropyran-3,4,5-triol] | 13
9 | COCc1cc(C#C[C@H]2O[C@H](CO)[C@@H](O)[C@H](O)[C@@H]2O)ccc1C#C[C@H]1O[C@H](CO)[C@@H](O)[C@H](O)[C@@H]1O [Compound 79, (2R,3S,4R,5S,6R)-2-(hydroxymethyl)-6-[2-[3-(methoxymethyl)-4-[2-[(2R,3S,4R,5S,6R)-3,4,5-trihydroxy-6-(hydroxymethyl)tetrahydropyran-2-yl]ethynyl]phenyl]ethynyl]tetrahydropyran-3,4,5-triol] | 37
10 | Cc1cc(-c2ccc(-c3ccc([C@H]4O[C@H](CO)[C@@H](O)[C@H](O)[C@@H]4O)c(C)c3)c(C)n2)ccc1[C@H]1O[C@H](CO)[C@@H](O)[C@H](O)[C@@H]1O [Compound 155, (2R,3S,4R,5S,6R)-2-(hydroxymethyl)-6-[2-methyl-4-[2-methyl-6-[3-methyl-4-[(2R,3S,4R,5S,6R)-3,4,5-trihydroxy-6-(hydroxymethyl)tetrahydropyran-2-yl]phenyl]-3-pyridyl]phenyl]tetrahydropyran-3,4,5-triol] | 22
11 | CN(C)CCN(C)C1c2cc(C#C[C@H]3O[C@H](CO)[C@@H](O)[C@H](O)[C@@H]3O)ccc2-c2ccc(C#C[C@H]3O[C@H](CO)[C@@H](O)[C@H](O)[C@@H]3O)cc21 [Compound 213, (2R,3S,4R,5S,6R)-2-[2-[9-[2-(dimethylamino)ethyl-methyl-amino]-7-[2-[(2R,3S,4R,5S,6R)-3,4,5-trihydroxy-6-(hydroxymethyl)tetrahydropyran-2-yl]ethynyl]-9H-fluoren-2-yl]ethynyl]-6-(hydroxymethyl)tetrahydropyran-3,4,5-triol] | 3.7
12 | CC1(O)CCC2(CC1)c1cc(C#C[C@H]3O[C@H](CO)[C@@H](O)[C@H](O)[C@@H]3O)ccc1-c1ccc(C#C[C@H]3O[C@H](CO)[C@@H](O)[C@H](O)[C@@H]3O)cc12 [Compound 204] | 0.8
13 | OC[C@H]1O[C@H](C#Cc2ccc3c(c2)C2(CCOCC2)c2cc(C#C[C@H]4O[C@H](CO)[C@@H](O)[C@H](O)[C@@H]4O)ccc2-3)[C@@H](O)[C@@H](O)[C@@H]1O [Compound 162, (2R,2,3S,3,4R,4,5S,5,6R,6)-6,6((2tetrahydrospiro[fluorene-9,4pyran]-2,7-diyl)bis(ethyne-2,1-diyl))bis(2-(hydroxymethyl)tetrahydro-2H-pyran-3,4,5-triol)] | 0.11
14 | COc1cc(C#C[C@H]2O[C@H](CO)[C@@H](O)[C@H](O)[C@@H]2O)ccc1C#C[C@H]1O[C@H](CO)[C@@H](O)[C@H](O)[C@@H]1O [Compound 71] | 28
15 | Cc1cc(-c2cnc(-c3ccc([C@H]4O[C@H](CO)[C@@H](O)[C@H](O)[C@@H]4O)c(C)c3)cn2)ccc1[C@H]1O[C@H](CO)[C@@H](O)[C@H](O)[C@@H]1O [Compound 153, (2R,3S,4R,5S,6R)-2-(hydroxymethyl)-6-[2-methyl-4-[5-[3-methyl-4-[(2R,3S,4R,5S,6R)-3,4,5-trihydroxy-6-(hydroxymethyl)tetrahydropyran-2-yl]phenyl]pyrazin-2-yl]phenyl]tetrahydropyran-3,4,5-triol] | 92
16 | OC[C@H]1O[C@H](C#Cc2ccc(C#C[C@H]3O[C@H](CO)[C@@H](O)[C@H](O)[C@@H]3O)c3ccccc23)[C@@H](O)[C@@H](O)[C@@H]1O [Compound 136, (2R,3S,4R,5S,6R)-2-(hydroxymethyl)-6-[2-[4-[2-[(2R,3S,4R,5S,6R)-3,4,5-trihydroxy-6-(hydroxymethyl)tetrahydropyran-2-yl]ethynyl]-1-naphthyl]ethynyl]tetrahydropyran-3,4,5-triol] | 145
